PMC5708526, “Targeting secondary protein complexes in drug discovery: studying the druggability and chemical biology of the HSP70/BAG1 complex” (Chemical Communications (Cambridge, England), 2017)
Entries after “also recorded” stand apart in the source; their conditions may differ.

Key:
HSP72/BAG1 complex = target: T1, HSP72/BAG1 complex (Homo sapiens, UniProt P0DMV8); assay: FP probe KD determination with BAG1; format: binding
T1 construct: purchased Enzo Life Sciences (BAG-1M only)
Protocol: To assess what effect the secondary HSP72/BAG1 complex had on the apparent affinity of the non-nucleotide bisaryl-ATTO-488 FP-probe 11, we carried out a similar BAG1 study. […] To confirm that the binding of BAG1 to HSP72 was not mutually exclusive, we screened the nucleotides ADP and ATP in a competition assay with bisaryl-ATTO-488 11 and HSP72 at a 50% bound fraction, with and without a saturating concentration of BAG1 (700 nM) (Fig. S7, ESI ^†). […]
mM TRIS base pH 7.4, 100 mM NaCl, 1 mM DTT, 1% (v/v) glycerol) or BAG1 replacement buffer (5 μL, 20 mM TRIS base pH 7.4, 100 mM NaCl, 1 mM DTT, 1% (v/v) glycerol) was added to the corresponding wells of the assay plate. Fluorescence polarisation values for probe and HSP72 ± BAG1 were plotted using GraphPad prism 6.
KD determination with BAG1: To each well, 5 μL containing probe molecule (20 nM in assay buffer) and BAG1 protein (1.4 μM in assay buffer) and increasing concentrations of HSP70 protein (5 μL, two-fold dilution series) were added. Fluorescence polarisation values for tracer control wells (10 nM probe in assay buffer only) were subtracted from each data point prior to data analysis. KD determination was performed using non-linear regression analysis (GraphPad Prism 6, one site–specific binding […]

HSP72 = target: T2, HSP72 (Homo sapiens, UniProt P0DMV8); assay: FP assay binding window and Z' determination
T2 construct: made in house
T2 sequence (P0DMV8 whole entry): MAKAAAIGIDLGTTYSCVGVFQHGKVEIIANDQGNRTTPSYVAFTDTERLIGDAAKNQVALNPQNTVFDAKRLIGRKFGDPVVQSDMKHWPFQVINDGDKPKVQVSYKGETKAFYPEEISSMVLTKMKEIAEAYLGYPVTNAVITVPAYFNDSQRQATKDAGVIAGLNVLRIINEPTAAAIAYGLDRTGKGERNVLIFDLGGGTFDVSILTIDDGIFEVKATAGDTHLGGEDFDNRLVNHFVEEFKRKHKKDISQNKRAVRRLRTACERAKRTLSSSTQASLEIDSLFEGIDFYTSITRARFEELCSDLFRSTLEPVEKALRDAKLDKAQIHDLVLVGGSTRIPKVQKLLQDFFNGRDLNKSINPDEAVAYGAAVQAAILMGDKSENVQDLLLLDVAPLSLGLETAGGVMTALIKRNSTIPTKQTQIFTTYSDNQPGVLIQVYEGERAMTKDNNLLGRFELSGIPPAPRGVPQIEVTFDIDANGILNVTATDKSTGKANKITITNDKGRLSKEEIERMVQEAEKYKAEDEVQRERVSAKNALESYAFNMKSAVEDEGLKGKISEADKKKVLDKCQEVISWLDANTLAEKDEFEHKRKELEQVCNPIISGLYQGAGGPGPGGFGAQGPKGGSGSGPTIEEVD
Source text: As a result, the assay was not statistically robust, so could not be used in competition experiments (Z′ = 0.36).[11],[20],[21] We hypothesised that the high lipophilicity of 10 (clog P = 6.9) was causing the small binding window, either due to aggregation, even at very low concentrations, or its large hydrate volume.[22] Because the lipophilicity of the specific-ligand portion of the probe was fixed by the need for high affinity to the HSP70 target, we focused on changes to the solvent exposed fluorophore. ATTO-488, a green-shifted fluorophore that contains two sulfonic acid groups, was selected as an alternative to fluorescein (see ESI ^†), as this reduced the clog P of the bisaryl probe 11 to –3.9.[21] The binding window of ATTO-488 bisaryl FP-probe 11 measured at a fixed and apparently saturating concentration of HSP72 (5 μM), was now greater than 150 mP (Z′ = 0.63, Fig. 3A and Fig. S1, ESI ^†). […]
TRIS Tris(hydroxymethyl)aminomethane
General Information: Unless otherwise stated the aqueous assay buffer contained 50 mM TRIS base pH 7.4, 150 mM NaCl, 6 mM MgCl2, 1 mM DTT, 0.1% (wt/wt) CHAPS. The assay was conducted using 384 Plus F ProxiPlates (PerkinElmer) with a final assay volume of 10 μL. Plates were centrifuged at 1000 rpm for 1 minute prior to incubation and read using an 2103 Envision Multilable Plate Reader. Excitation and emission wavelengths used for green probes were 480 nm and 535 nm, respectively.
Fluorescence polarisation was measured in units of millipolarization (mP). All experiments were performed in triplicate, unless otherwise stated. Data were plotted and analysed using GraphPad Prism 6, graphical data represents the mean ± standard error of the mean for a single representative experiment. ATP-derived fluorescent probes (1.0 mM in aqueous) were purchased from Jena Bioscience. Human BAG-1M (10.9 μM in 20 mM TRIS base pH 7.4, 100 mM NaCl, 1 mM DTT, 1% (v/v) glycerol) was purchased from Enzo Life Sciences.
Determination of optimal probe concentration: To each well, 5 μL of HSP72 (10 µM in assay buffer) or 5 μL assay buffer and increasing concentrations of probe (5 μL, two-fold dilution series) were added. Fluorescence polarisation values for the tracer ± protein were plotted using GraphPad prism 6. […]
Z’ determination: To each well, 5 µL of probe (20 nM in assay buffer) and either 5 µL of HSP70 (in assay buffer) or 5 µL of assay buffer were added. Fluorescent polarisation values from 96 wells were used to calculate the mean and standard deviation for each data set. Z’-factors were calculated using the equation given below (sample refers to probe in the absence of protein and control refers to probe in the presence of protein). […]

T1 sequence (P0DMV8 whole entry): as above
T1 sequence (Q99933 72-345 partner limits assumed): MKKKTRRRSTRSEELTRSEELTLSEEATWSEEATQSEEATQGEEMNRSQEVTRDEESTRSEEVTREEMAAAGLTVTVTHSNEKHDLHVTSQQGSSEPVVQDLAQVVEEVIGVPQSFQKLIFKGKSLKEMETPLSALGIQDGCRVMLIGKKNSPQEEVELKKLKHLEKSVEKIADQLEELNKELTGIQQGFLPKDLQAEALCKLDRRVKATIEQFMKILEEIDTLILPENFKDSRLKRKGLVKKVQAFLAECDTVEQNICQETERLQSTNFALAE

CN(CCCC(=O)NCCCCCCNc1ncnc2c1nc(NCc1ccc3ncccc3c1)n2[C@@H]1O[C@H](COCc2ccc(C(F)(F)F)cc2)[C@@H](O)[C@H]1O)C(=O)c1ccccc1-c1c2ccc(=N)c(S(=O)(=O)O)c-2oc2c(S(=O)(=O)O)c(N)ccc12 [compound 11]
Kd (HSP72/BAG1 complex; 700 nM BAG1): 141 nM
effect of BAG1 on affinity of the probe for HSP72 (HSP72/BAG1 complex; saturating BAG1 (700 nM)): maintained; also recorded: no significant change
Z' (HSP72; FP assay with HSP72): 0.63
assay (binding) window (HSP72; presence vs absence of 5 μM HSP72): greater than 150 mP
